In patent publication US10792282B2, “Protein kinase C inhibitors and uses thereof” (Rigel Pharmaceuticals, Inc., priority 2013, dated 2020):
Where two headings read alike, the source gives them in different places.

Experiments:
[1] = test system: PKC mediated IL-2 production; assay: IL-2 ELISA, human primary T cell, anti CD3+CD28+ (whole cell functional assay); format: cell-based
Outline: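 Anti-CD3/CD28-expanded human primary T cells (100,000/well), pre-incubated 1 h at 37° C with compound, then stimulated on plates coated with 1 μg/ml αCD3 and 5 μg/ml αCD28. Counter assay used 0.5 ng/ml PMA plus 0.1 μM ionomycin (final). Supernatant IL-2 measured by ELISA after 24 h.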

[2] = test system: PLP induced experimental autoimmune encephalomyelitis (EAE); assay: PLP induced experimental autoimmune encephalomyelitis (EAE) model in SJL mice; format: in vivo; conditions: Mus musculus, both pretreatment and treatment dosing
Description: EAE is a useful model for multiple sclerosis (MS), an autoimmune disease of the CNS that is caused by immune-cell infiltration of the CNS white matter. Inflammation and subsequent destruction of myelin cause progressive paralysis. Like the human disease, EAE is associated with peripheral activation of T cells autoreactive with myelin proteins, such as myelin basic protein (MBP), proteolipid protein (PLP), or myelin oligodendrocyte protein (MOG). Activated neuroantigen-specific T cells pass the blood-brain barrier, leading to focal mononuclear cell infiltration and demyelination. EAE can be induced in susceptible mouse strains by immunization with myelin-specific proteins in combination with adjuvant. In the SJL mouse model used in these studies, hind limb and tail paralysis is apparent by Day 10 after immunization, the peak of disease severity can be observed between Days 10 and 14, and a cycle of partial spontaneous remission followed by relapse can be observed up to Day 35.
In the SJL murine model of EAE, each mouse is sensitized with PLP/CFA. (150 μg PLP139-151 with 200 μg CFA in 0.05 ml of homogenate on four sites of hind flank for a total of 0.2 ml emulsion is used to induce EAE). […] In both protocols, clinical scores are monitored daily, and body weights are measured twice weekly. […]

[3] = Homo sapiens, T-cell, 24 h, IL-2 production, human primary T cells stimulated with αCD3 and αCD28, 24 hours, IL-2 by ELISA, read-out: EC50
[4] = Homo sapiens, T-cell, human primary T cells stimulated with αCD3 and αCD28, IL-2 by ELISA, read-out: EC50 (blocked IL-2 production)
[5] = IL-2 production, human primary T cells stimulated with αCD3 and αCD28, 24 hours, IL-2 by ELISA, read-out: EC50

SMILES | EC50 [1, 3] [µM] | EC50 [1, 4] [µM] | EC50 [1, 5] [µM] | further results
Cn1nnn(-c2cc(Nc3ncc(F)c(N[C@@H]4C[C@@H]5CCCN5C(C)(C)C4)n3)c(F)cc2C2CC2)c1=O [Compound 17, 1-(5-(4-((7R,8aS)-octahydro-5,5-dimethylindolizin-7ylamino)-5-fluoropyrimidin-2-yl-amino)-2-cyclopropyl-4-fluorophenyl)-4-methyl-1H-tetrazol-5(4H)-one] | < 0.1 | < 10 | – | ED50 [2]: 30 mg/kg
Cn1nnn(-c2cc(Nc3ncc(F)c(N[C@@H]4C[C@@H]5CCCN5C(C)(C)C4)n3)ccc2O[C@H]2CCOC2)c1=O [Compound 50, 1-(2-((S)-tetrahydrofuran-3-yloxy)-5-(5-fluoro-4-(octahydro-5,5-dimethylindolizin-7-ylamino)pyrimidin-2-ylamino)phenyl)-4-methyl-1H-tetrazol-5(4H)-one] | < 0.1 | < 10 | – | –
CC1(C)CC(Nc2nc(Nc3ccc(O[C@@H]4CCOC4)c(C#N)c3)ncc2F)CC2CCCN21 (single isomer, unassigned) [Compound 59] | – | – | < 0.5 | –
CC1C(Nc2nc(Nc3cc(N(C)C(=O)N(C)C)c(C4CC4)cc3F)ncc2F)CC(C)(C)N2CCCC12 (stereo not shown) [Compound 74] | – | – | < 0.5 | –
Cn1nnn(-c2cc(Nc3ncc(C#N)c(NC4CC5CCCN5C(C)(C)C4)n3)c(F)cc2C2CC2)c1=O (stereo not shown) [Compound 66, 4-((R/S,S/R)-Octahydro-5,5-dimethylindolizin-7-ylamino)-2-(4-cyclopropyl-2-fluoro-5-(4,5-dihydro-4-methyl-5-oxotetrazol-yl)phenylamino) pyrimidine-5-carbonitrile] | – | – | < 0.1 | –
CC(C)N1CCC(Oc2ccc(Nc3ncc(F)c(NC4CC5CCCN5C(C)(C)C4)n3)cc2OC(F)F)CC1 (stereo not shown) [Compound 9, (R/S, S/R, R/R, S/S)—N^2-(4-(1-isopropylpiperidin-4-yloxy)-3-(difluoromethoxy)phenyl)-5-fluoro-N^4-(octahydro-5,5-dimethylindolizin-7-yl)pyrimidine-2,4-diamine] | – | – | < 0.5 | –
CC(C)N1CCC(Oc2ccc(Nc3ncc(F)c(NC4CC5CCCN5C(C)(C)C4)n3)cc2OC(F)F)CC1 (stereo not shown) [Compound 6, (R/S, S/R, R/R, S/S)—N^2-(4-(1-isopropylpiperidin-4-yloxy)-3-(difluoromethoxy)phenyl)-5-fluoro-N^4-(octahydro-5,5-dimethylindolizin-7-yl)pyrimidine-2,4-diamine] | – | – | < 0.5 | –
Cn1nnn(-c2cc(Nc3ncc(F)c(N[C@@H]4C[C@@H]5CC(F)(F)CN5C(C)(C)C4)n3)c(F)cc2C2CC2)c1=O [Compound 45, 1-(5-(4-((7R,8aR)-2,2-difluoro-octahydro-5,5-dimethylindolizin-7-ylamino)-5-fluoropyrimidin-2-ylamino)-2-cyclopropyl-4-fluorophenyl)-4-methyl-1H-tetrazol-5(4H)-one] | < 10 | < 10 | – | –
Cn1nnn(-c2cc(Nc3ncc(F)c(N[C@@H]4C[C@@H]5CCCN5C(C)(C)C4)n3)ccc2O[C@@H]2CCOC2)c1=O [Compound 48, 1-(2-((R)-tetrahydrofuran-3-yloxy)-5-(5-fluoro-4-(octahydro-5,5-dimethylindolizin-7-ylamino)pyrimidin-2-ylamino)phenyl)-4-methyl-1H-tetrazol-5(4H)-one] | < 0.1 | < 10 | – | –
Cn1nnn(-c2cc(Nc3ncc(F)c(NC4CCN5C(CCC5(C)C)C4)n3)c(F)cc2C2CC2)c1=O (stereo not shown) [Compound 26] | < 10 | < 10 | – | –
C[C@@H](O)COc1cc(F)c(Nc2ncc(F)c(N[C@@H]3C[C@@H]4CCCN4C(C)(C)C3)n2)cc1-n1nnn(C)c1=O [Compound 82, 1-(5-(4-((7R,8aS)-5,5-dimethyloctahydroindolizin-7-ylamino)-5-fluoropyrimidin-2-ylamino)-4-fluoro-2-((R)-2-hydroxypropoxy)phenyl)-4-methyl-1H-tetrazol-5(4H)-one] | – | – | – | EC50 ([1]; T-cell, IL-2 production, human primary T cells stimulated with αCD3 and αCD28, 24 hours, IL-2 by ELISA, read-out: EC50): < 0.1 µM; EC50 ([1]; T-cell, human primary T cells stimulated with αCD3 and αCD28, IL-2 by ELISA, read-out: EC50 (blocked IL-2 production)): < 10 µM
Cn1nnn(-c2cc(Nc3ncc(C#N)c(N[C@@H]4C[C@@H]5CCCN5C(C)(C)C4)n3)c(F)cc2OC(C)(C)CO)c1=O [Compound 84, 4-((7R,8aS)-octahydro-5,5-dimethylindolizin-7-ylamino)-2-(4-(1-hydroxy-2-methylpropan-2-yloxy)-2-fluoro-5-(4,5-dihydro-4-methyl-5-oxotetrazol-1-yl)phenylamino)pyrimidine-5-carbonitrile] | < 0.5 | < 10 | – | –
Cc1ccc(Nc2ncc(F)c(N[C@H]3C[C@@H]4CC(F)(F)CN4C(C)(C)C3)n2)cc1C#N [Compound 44, (4-((7S,8aR)-2,2-difluoro-octahydro-5,5-dimethylindolizin-7-ylamino)-5-fluoropyrimidin-2-ylamino)-2-methylbenzonitrile] | < 10 | < 10 | – | –
Cc1ncc(Nc2ncc(F)c(NC3CC4CCCN4C(C)(C)C3)n2)cc1-n1nnnc1C (stereo not shown) [Compound 15] | – | – | < 0.5 | –
Cn1nnn(-c2cc(Nc3ncc(F)c(NC4CCN5C(CCC5(C)C)C4)n3)c(F)cc2C2CC2)c1=O (single isomer, unassigned) [Compound 34, 1-(5-(5-fluoro-4-(octahydro-3,3-dimethylindolizin-7-ylamino)pyrimidin-2-ylamino)-2-cyclopropyl-4-fluorophenyl)-4-methyl-1H-tetrazol-5(4H)-one] | < 10 | < 10 | – | –
CC(C)N1CCC(Oc2ccc(Nc3ncc(F)c(NC4CC5CCCN5C(C)(C)C4)n3)cc2OC(F)F)CC1 (stereo not shown) [Compound 8, (R/S, S/R, R/R, S/S)—N^2-(4-(1-isopropylpiperidin-4-yloxy)-3-(difluoromethoxy)phenyl)-5-fluoro-N^4-(octahydro-5,5-dimethylindolizin-7-yl)pyrimidine-2,4-diamine] | – | – | < 1 | –
Cn1nnn(-c2cc(Nc3ncc(F)c(N[C@@H]4C[C@@H]5CCC(=O)N5C(C)(C)C4)n3)c(F)cc2C2CC2)c1=O (racemic) [Compound 31, 1-(5-(5-fluoro-4-(hexahydro-5,5-dimethylindolizin-3(5H)-one-7-ylamino)pyrimidin-2-ylamino)-2-cyclopropyl-4-fluorophenyl)-4-methyl-1H-tetrazol-5(4H)-one] | < 10 | < 10 | – | –
